Source: US20100029615A1, “BENZIMIDAZOLE DERIVATIVES” (priority 2006, published 2010)
Structures can show the parent of a compound that is named as a salt.

These compounds were tested against T1, SMO (Mus musculus, UniProt P56726) (assay: Smoothened (SMO)/Sonic Hedgehog (SHh) Transient Transcriptional Activation Assay (Gli-luciferase reporter in C3H10T1/2 cells)). Conditions: 2 uM test compound, SHh 250 ng/ml, 20 hrs.
T1 construct: endogenous in cells; host or cells: C3H10T1/2 (ATCC #CCL-226)
Type: cell-based, murine
Outline: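 Luminescence (Dual-Glo) measured after 20 h co-exposure at 37 °C to 250 ng/ml human SHh and compound at 2 uM down to 2 nM final. Cells were C3H10T1/2 carrying a transfected murine 10× Gli response-element luciferase construct with pEGFP, starved 20 h in 0.5% calf serum beforehand.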

T1 sequence (P56726 33-793): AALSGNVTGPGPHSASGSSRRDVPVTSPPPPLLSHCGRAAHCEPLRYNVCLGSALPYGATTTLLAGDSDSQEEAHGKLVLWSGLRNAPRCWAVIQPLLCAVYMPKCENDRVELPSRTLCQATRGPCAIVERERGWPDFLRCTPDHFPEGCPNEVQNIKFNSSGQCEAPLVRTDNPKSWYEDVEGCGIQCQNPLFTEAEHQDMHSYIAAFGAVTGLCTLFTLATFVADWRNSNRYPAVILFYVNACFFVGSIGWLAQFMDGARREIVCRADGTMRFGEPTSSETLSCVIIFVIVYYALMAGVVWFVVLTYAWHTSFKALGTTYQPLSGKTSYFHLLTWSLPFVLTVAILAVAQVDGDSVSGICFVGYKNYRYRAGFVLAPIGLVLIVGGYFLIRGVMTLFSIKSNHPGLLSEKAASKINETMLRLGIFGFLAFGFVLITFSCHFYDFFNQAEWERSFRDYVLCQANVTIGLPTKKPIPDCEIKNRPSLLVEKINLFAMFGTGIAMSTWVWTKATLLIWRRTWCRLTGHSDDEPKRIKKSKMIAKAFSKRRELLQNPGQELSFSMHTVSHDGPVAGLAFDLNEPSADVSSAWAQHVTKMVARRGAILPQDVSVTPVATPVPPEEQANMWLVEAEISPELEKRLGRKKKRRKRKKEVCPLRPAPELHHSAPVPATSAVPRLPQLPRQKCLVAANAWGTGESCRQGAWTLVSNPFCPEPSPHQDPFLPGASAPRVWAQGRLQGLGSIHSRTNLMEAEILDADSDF

Compound | SMO % inhibition at 2 uM [%]
N-(3-(6-(Cyanomethyl)-1-methyl-1H-benzo[d]imidazol-2-yl)cyclohexyl)-2,3-dihydrobenzo[b][1,4]dioxine-6-carboxamide and N-(3-(5-(Cyanomethyl)-1-methyl-1H-benzo[d]imidazol-2-yl)cyclohexyl)-2,3-dihydrobenzo[b][1,4]dioxine-6-carboxamide [Example 35] | 106

Same assay, conditions: 2 μM test compound, SHh 250 ng/ml, 20 hrs, HCl, 2 µM

Compound | SMO CELL % INHIBITION @ 2 μM [%]
COc1cc(OC)cc(C(=O)NC23CCCC(c4nc5cc(C(F)(F)F)ccc5[nH]4)(C2)C3)c1 [Example 260, 3,5-dimethoxy-N-{5-[5-(trifluoromethyl)-1H-benzimidazol-2-yl]bicyclo[3.1.1]hept-1-yl}benzamide HCl] | 101.34

Same assay, conditions: C3H 10T1/2, 2 uM test compound, SHh 250 ng/ml, 20 hrs, read-out: SMO % inhibition at 2 uM

Compound | inhibition at 2 µM [%]
CNC(=O)c1ccc2nc([C@H]3CCC[C@@H](NC(=O)c4cc(OC)cc(OC)c4)C3)[nH]c2c1 [Example 7, 2-(3-[3,5-dimethoxybenzamido)cyclohexyl)-N-methyl-1H-benzo[d]imidazole-5-carboxamide] | 70
COc1cc(OC)cc(C(=O)NC2CCCC(c3nc4ccc(C)cc4n3C)C2)c1 (stereo not shown) [Example 26, N-(3-(1,6-Dimethyl-1H-benzo[d]imidazol-2-yl)cyclohexyl]-3,5-dimethoxybenzamide] | 113
COCCNc1cc(C(=O)N[C@@H]2CCC[C@H](c3nc4ccccc4[nH]3)C2)ccn1 [Example 42, N-((1R,3S)-3-(1H-Benzo[d]imidazol-2-yl)cyclohexyl)-2-(2-methoxyethylamino)isonicotinamide] | 87
O=C(NC1CCCC(c2nc3ccccc3[nH]2)C1)c1ccc2c(c1)OCCO2 (stereo not shown) [Example 1, N-(3-(1H-benzo[d]midazol-2-yl)cyclohexyl)-2,3-dihydrobenzo[b][1,4]dioxine-6-carboxamide] | 107

Same assay, conditions: C3H 10T1/2, 2 μM test compound, SHh 250 ng/ml, 20 hrs, read-out: SMO CELL % INHIBITION @ 2 μM

Compound | inhibition at 2 µM [%]
O=C1Cc2cc(C(=O)N[C@@H]3CCC[C@H](c4nc5cc(C(F)(F)F)ccc5[nH]4)C3)ccc2N1 [Example 286, 2-oxo-N-{(1R,3S)-3-[5-(trifluoromethyl)-1H-benzimidazol-2-yl]cyclohexyl} indoline-5-carboxamide HCl] | 114
O=C(Nc1ccc(-c2ccccc2)s1)N[C@@H]1CCC[C@H](c2nc3ccccc3[nH]2)C1 [Example 229, 1-[(1R,3S)-3-(1H-benzimidazol-2-yl)cyclohexyl]-3-(5-phenyl-2-thienyl)urea] | 108
Cn1c(C2CCCC(NC(=O)c3ccc4c(c3)OCCO4)C2)nc2cc(CN)ccc21 (stereo not shown) [Example 73, N-{3-[5-(aminomethyl)-1-methyl-1H-benzimidazol-2-yl]cyclohexyl}-2,3-dihydro-1,4-benzodioxine-6-carboxamide HCl] | 104
COc1cc(OC)cc(C(=O)N[C@@H]2CCC[C@H](c3nc4ccccc4n3C)C2)c1 [Example 167, 3,5-dimethoxy-N[(1R,3S)-3-(1-methyl-1H-benzimidazol-2-yl)cyclohexyl] benzamide HCl] | 101
O=C(NC12CCCC(c3nc4cc(Cl)ccc4[nH]3)(C1)C2)c1ccc2c(c1)OCCO2 [Example 272, N-[5-(5-chloro-1H-benzimidazol-2-yl)bicyclo[3.1.1]hept-1-yl]-2,3-dihydro-1,4-benzodioxine-6-carboxamide] | 110
O=C(Cc1cn2cc(Cl)ccc2n1)NC1CCCC(c2nc3ccccc3[nH]2)C1 (stereo not shown) [Example 107, N-[3-(1H-benzimidazol-2-yl)cyclohexyl]-2-(6-chloroimidazo[1,2-a]pyridin-2-yl)acetamide triflouroacetate] | 79
O=C(NC12CCCC(c3nc4ccccc4[nH]3)(C1)C2)c1ccc2c(c1)OCCO2 [Example 87, N-[5-(1H-benzimidazol-2-yl)bicyclo[3.1.1]hept-1-yl]-2,3-dihydro-1,4-benzodioxine-6-carboxamide] | 91
O=C(NC1CCCC(c2nc3ccccc3[nH]2)C1)c1cnn2c1CCCC2 (stereo not shown) [Example 122, N-(3-(1H-benzo[d]imida-zol-2-yl)cyclohexyl)-4,5,6,7-tetrahydropyr-azolo[1,5-a]pyridine-3-carboxamide triflouroacetate] | 92
O=C(CCCC(=O)NC1CCCC(c2nc3ccccc3[nH]2)C1)Nc1ccccc1 (stereo not shown) [Example 129, N-[3-(1H-benzimidazol-2-yl)cyclohexyl]-N′-phenylpentane diamide triflouroacetate] | 95
O=C(NC1CCCC(c2nc3ccc(C(F)(F)F)cc3[nH]2)C1)c1ccc2c(c1)OCCO2 (stereo not shown) [Example 84, N-{3-[6-(trifluoromethyl)-1H-benzimidazol-2-yl]cyclohexyl}-2,3-dihydro-1,4-benzodioxine-6-carboxamide-HCl] | 101
O=C(N[C@H]1CCC[C@H](c2nc3ccccc3[nH]2)C1)c1cc(C2CC2)n[nH]1 [Example 246, N-(3-(1H-benzo[d]imidaz-ol-2-yl)cyclohexyl)-3-cyclopropyl-1H-pyrazole-5-carboxamide HCl] | 44
O=C1CCc2cc(C(=O)N[C@H]3CCC[C@H](c4nc5ccccc5[nH]4)C3)ccc2N1 [Example 247, N-(3-(1H-benzo[d]imidaz-ol-2-yl)cyclohexyl)-2-oxo-1,2,3,4-tetrahydroquino-line-6-carboxamide HCl] | 98
COc1cc(OC)cc(C(=O)N[C@@H]2CCCC(c3nc4cc(S(C)(=O)=O)ccc4[nH]3)C2)c1 (stereo in doubt) [Example 289, 3,5-dimethoxy-N-{(1R,3S)-3-[5-(methylsulfonyl)-1H-benzimidazol-2-yl]cyclohexyl} benzamide (+)-tartrate] | 81
O=C(NC1CCCC(c2nc3ccccc3[nH]2)C1)c1ccc(-n2ccnc2)cc1 (stereo not shown) [Example 90, N-[3-(1H-benzimidazol-2-yl)cyclohexyl]-4-(1H-imidazol-1-yl)benzamide triflouroacetate] | 100
O=C(NC1CCCC(c2nc3ccccc3[nH]2)C1)c1ccc2[nH]cnc2c1 (stereo not shown) [Example 60, N-[3-(1H-benzimidazol-2-yl)cyclohexyl]-1H-benzimidazole-5-carboxamide HCl] | 87
O=C(NC1CCCC(c2nc3ccccc3[nH]2)C1)c1c[nH]c(=O)[nH]c1=O (stereo not shown) [Example 108, N-[3-(1H-benzimidazol-2-yl)cyclohexyl]-2,4-dioxo-1,2,3,4-tetrahydropyr-imidine-5-carboxamide triflouroacetate] | 116
O=C1CCc2cc(C(=O)N[C@@H]3CCC[C@H](c4nc5cc(C(F)(F)F)ccc5[nH]4)C3)ccc2N1 [Example 285, 2-oxo-N-{(1R,3S)-3-[5-(trifluoromethyl)-1H-benzimidazol-2-yl]cyclohexyl}-1,2,3,4-tetrahydroquino-line-6-carboxamide HCl] | 111
O=C(N[C@@H]1CCC[C@H](c2nc3cc(Br)ccc3[nH]2)C1)c1ccc2c(c1)OCCO2 [Example 149, N-[(1R,3S)-3-(5-bromo-1H-benzimidazol-2-yl)cyclohexyl]-2,3-dihydro-1,4-benzodioxine-6-carboxamide HCl] | 103
O=C(NC1CCCC(c2nc3ccccc3[nH]2)C1)c1ccc(CN2CCOCC2)o1 (stereo not shown) [Example 134, N-[3-(1H-benzimidazol-2-yl)cyclohexyl]-5-(morpholin-4-ylmethyl)-2-furamide triflouroacetate] | 101
O=C(NC1CCCC(c2nc3ccccc3[nH]2)C1)c1cc(-c2ccncc2)n[nH]1 (stereo not shown) [Example 135, N-[3-(1H-benzimidazol-2-yl)cyclohexyl]-3-pyridin-4-yl-1H-pyrazole-5-carboxamide triflouroacetate] | 100
Cc1ccc2[nH]c(C(=O)N[C@@H]3CCC[C@H](c4nc5ccccc5[nH]4)C3)c(C)c2c1 [Example 191, N-[(1R,3S)-3-(1H-benzimidazol-2-yl)cyclohexyl]-3,5-dimethyl-1H-indole-2-carboxamide triflouroacetate] | 107
Cc1nn(C)c2sc(C(=O)N[C@@H]3CCC[C@H](c4nc5cc(C(F)(F)F)ccc5[nH]4)C3)cc12 [Example 284, 1,3-dimethyl-N-{(1R,3S)-3-[5-(trifluoromethyl)-1H-benzimidazol-2-yl]cyclohexyl}-1H-thieno[2,3-c]pyrazole-5-carboxamide HCl] | 94.9
O=C(N[C@@H]1CCC[C@H](c2nc3ccccc3n2CCO)C1)c1ccc2c(c1)OCCO2 (stereo in doubt) [Example 71, N-{3-[1-(2-hydroxyethyl)-1H-benzimidazol-2-yl]cyclohexyl}-2,3-dihydro-1,4-benzodioxine-6-carboxamide] | 98
O=C(N[C@@H]1CCC[C@H](c2nc3cc(C(F)(F)F)ccc3[nH]2)C1)c1ccc2c(c1)CCN(CC1CC1)C2 [Example 295] | 105
O=C1CCc2cc(C(=O)N[C@@H]3CCC[C@H](c4nc5ccccc5[nH]4)C3)ccc2N1 [Example 220, N-[(1R,3S)-3-(1H-benzimidazol-2-yl)cyclohexyl]-2-oxo-1,2,3,4-tetrahydroquin-oline-6-carboxamide triflouroacetate] | 81
N#Cc1ccc(NC(=O)NC23CCCC(c4nc5ccccc5[nH]4)(C2)C3)cc1 [Example 256, 1-(5-(1H-benzo[d]imidaz-ol-2-yl)bicyclo[3.1.1]heptan-1-yl)-3-(4-cyanophenyl)-urea HCl] | 94
COc1ccc2cc(C(=O)N[C@@H]3CCC[C@H](c4nc5ccccc5[nH]4)C3)[nH]c2c1 [Example 211, N-[(1R,3S)-3-(1H-benzimidazol-2-yl)cyclohexyl]-6-methoxy-1H-indole-2-carboxamide triflouroacetate] | 89
O=C(NC1CCCC(c2nc3ccccc3[nH]2)C1)c1ccc(O)c(Cl)c1 (stereo not shown) [Example 147, N-[3-(1H-benzimidazol-2-yl)cyclohexyl]-3-chloro-4-hydroxybenz-amide triflouroacetate] | 68
